Usually Papp A→B stands for how fast a substance crosses the layer from the apical side. As a reminder, the half-life is the time in which the quantity being followed falls by half. A high value points to slow loss. For orientation: microsomal CLint means the capacity of the preparation to metabolise the compound, expressed as a volume cleared per time. For orientation: Papp B→A means how fast a substance crosses the layer from the basolateral side. For orientation: efflux ratio means the permeability from basolateral to apical divided by that in the opposite direction, in the common usage.

Data set [1] can be described thus: Microsome stability, human. Type of data set: in vitro ADME. The conditions noted are these: microsomes, 2 μM.
A short description of data set [2]: Microsome stability, beagle dog. In kind it is in vitro ADME. The following applies: microsomes, 2 μM.
A short description of data set [3]: Plasma stability, CD-1 mouse. The conditions noted are these: 2 μM. Type of data set: in vitro ADME.
Data set [4] in a line: Pharmacokinetics, single dose, 2-hour tissue levels in Colon26 tumor bearing mice. The conditions noted are these: female, athymic BALB/c nude or BALB/c, mouse, po, single dose 100 mg/kg p.o., 2-hour post dose. Type of data set: in vivo. Here is the method:
Female mice (either athymic BALC/c nude, or BALB/c mice) were inoculated with a single subcutaneous injection of 0.2 ml of mouse Colon-26 cell suspension (1×10^5 cells per animal) in the inguinal region. Colon26 (C26) tumor bearing mice received a single dose (3 mice/treatment) of vehicle (10% DMSO/90% [20% SBE-β-CD in saline], pH 5) containing compounds at 100 mg/kg by gavage (p.o.) and 2-hour post dose humanely euthanized.
Blood was obtained through cardiac puncture into K+EDTA tubes, mixed by inversion and centrifuged to obtain the plasma. Tissues were excised, cleaned of surrounding tissues. All samples immediately snap frozen in liquid N2 prior to LC-MS/MS analysis (using Waters HSS T3 2.1×50 mm (1.8 um) LC column, and an API-6500 Electrospray MS unit).

The target of another data set is CYP450 2D6 (Homo sapiens, UniProt P10635). In words: CYP450 panel, 2D6. The conditions noted are these: 10 μM; substrate dextromethophan.
Chain of CYP450 2D6 (P10635 whole entry): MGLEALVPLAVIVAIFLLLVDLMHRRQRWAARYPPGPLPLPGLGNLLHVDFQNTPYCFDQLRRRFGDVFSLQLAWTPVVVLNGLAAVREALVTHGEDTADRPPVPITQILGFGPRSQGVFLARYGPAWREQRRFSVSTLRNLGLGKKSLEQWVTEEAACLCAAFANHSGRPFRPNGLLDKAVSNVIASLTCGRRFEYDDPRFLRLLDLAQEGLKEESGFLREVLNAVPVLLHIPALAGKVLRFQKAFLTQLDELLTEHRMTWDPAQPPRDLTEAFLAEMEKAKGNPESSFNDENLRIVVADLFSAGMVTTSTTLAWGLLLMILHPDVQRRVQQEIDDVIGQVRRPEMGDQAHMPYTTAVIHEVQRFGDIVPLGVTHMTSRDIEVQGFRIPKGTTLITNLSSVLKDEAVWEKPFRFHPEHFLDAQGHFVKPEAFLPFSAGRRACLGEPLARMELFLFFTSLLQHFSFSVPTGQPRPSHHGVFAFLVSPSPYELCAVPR
Data set [5] in a line: Microsome stability, CD-1 mouse. The following applies: microsomes, 2 μM.
Data set [6] in a line: Absorption & efflux: Caco-2 permeability. The conditions noted are these: human. (Caco-2 monolayers are a common model of the intestinal barrier.)
Data set [7] is described as follows: Mouse liver microsome stability (t1/2, Clint). In kind it is in vitro ADME. The following applies: liver microsomes, pH 7.4, 0.5 mg/ml microsomal protein. The method, then: (Eppendorf 5804R). […] The disappearance of the parent compound was determined.
(In general: Liver microsomes are vesicles of endoplasmic reticulum, rich in cytochrome P450 enzymes.)

Data set [8] is described as follows: Metabolite ID study, human hepatocytes. Type of data set: in vitro ADME. The conditions noted are these: 10 uM compound 9, T=60 min. The method, then: Animal Studies: Compound 9 was tested using six species hepatocytes in a metabolite ID study (T=60 min).
Cryopreserved hepatocytes from a selected species were thawed and incubated in duplicate with 10 uM compound 9 in Krebs-Henseleit buffer. […] Viability of hepatocytes was >70% after thawing.
(Eppendorf 5804R). […] The disappearance of the parent compound was determined, and the formation of metabolites was evaluated. Metabolites present at >1% of total compound related material (based on peak area) were identified by interpretation of the LC-MS/MS data.
MS settings were optimized for the flow rate. Full scan spectra were acquired in combination with data dependent MS2.
The spectra obtained from all samples were screened for the presence of m/z values that are absent in the blank incubations (incubations with hepatocytes without compound and with vehicle control, and incubations of compound in buffer without hepatocytes). T=60 min incubations were used as an initial screening. All possible metabolites observed were semi-quantified by MS response (peak area). MS2 spectra were interpreted to determine possible location of the metabolism reaction. The presence of metabolites identified was compared across the selected species.

For data set [9], the system named is A549 CRAF BP (MEK phosphorylation). In words: A549-CRAF BP 100 nM, 2 h (pMEK). In kind it is cell-based. The conditions noted are these: Homo sapiens, A549, 2 h, phospho:total ratio normalized to DMSO control. In a few lines:
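Cells treated in duplicate for 2 h with compound, lysed and protein-normalised (1 mg/mL pERK, 1.5 mg/mL pMEK). Quantitative capillary Western; phospho/total protein ratio normalised to DMSO.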

For a further data set, the target named is T1, CYP450 2B6 (Homo sapiens, UniProt P20813).
T1 sequence (P20813 1-491): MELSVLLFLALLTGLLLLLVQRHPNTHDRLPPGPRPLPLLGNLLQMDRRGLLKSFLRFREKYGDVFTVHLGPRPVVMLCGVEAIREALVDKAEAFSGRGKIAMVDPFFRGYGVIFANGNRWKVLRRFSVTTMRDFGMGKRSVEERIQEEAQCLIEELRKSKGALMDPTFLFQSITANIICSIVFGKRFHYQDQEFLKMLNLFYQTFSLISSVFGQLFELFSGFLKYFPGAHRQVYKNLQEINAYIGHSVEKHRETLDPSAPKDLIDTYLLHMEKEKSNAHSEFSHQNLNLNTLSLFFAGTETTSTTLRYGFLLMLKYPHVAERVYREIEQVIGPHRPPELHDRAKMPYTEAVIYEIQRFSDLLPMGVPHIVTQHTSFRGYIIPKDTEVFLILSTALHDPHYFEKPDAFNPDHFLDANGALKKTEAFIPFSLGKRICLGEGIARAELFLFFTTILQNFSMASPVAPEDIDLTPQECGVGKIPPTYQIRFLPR
Nature of the data set: CYP450 panel, 2B6. The conditions noted are these: 10 μM; substrate bupropion.

Another data set addresses T2, CYP450 2C8 (Homo sapiens, UniProt P10632).
T2 sequence (P10632 1-490): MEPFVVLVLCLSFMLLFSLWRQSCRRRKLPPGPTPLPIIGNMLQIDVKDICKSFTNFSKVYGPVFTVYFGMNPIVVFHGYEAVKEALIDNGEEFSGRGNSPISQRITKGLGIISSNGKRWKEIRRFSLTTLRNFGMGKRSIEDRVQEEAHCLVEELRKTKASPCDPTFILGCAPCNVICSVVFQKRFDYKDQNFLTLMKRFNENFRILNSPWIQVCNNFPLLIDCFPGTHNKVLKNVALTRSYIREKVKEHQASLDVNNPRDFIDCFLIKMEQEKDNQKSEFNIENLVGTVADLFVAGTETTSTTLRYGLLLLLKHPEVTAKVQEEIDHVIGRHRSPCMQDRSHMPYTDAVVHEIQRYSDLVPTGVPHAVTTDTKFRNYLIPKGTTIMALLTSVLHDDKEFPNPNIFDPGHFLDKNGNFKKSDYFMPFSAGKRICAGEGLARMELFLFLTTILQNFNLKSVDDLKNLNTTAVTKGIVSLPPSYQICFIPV
In words: CYP450 panel, 2C8. The conditions noted are these: 10 μM; substrate amodiaquine.

The target of the next data set is CYP450 2C9 (Homo sapiens, UniProt P11712). Nature of the data set: CYP450 panel, 2C9. The conditions noted are these: 10 μM; substrate Diclofenac.
Chain of CYP450 2C9 (P11712 whole entry): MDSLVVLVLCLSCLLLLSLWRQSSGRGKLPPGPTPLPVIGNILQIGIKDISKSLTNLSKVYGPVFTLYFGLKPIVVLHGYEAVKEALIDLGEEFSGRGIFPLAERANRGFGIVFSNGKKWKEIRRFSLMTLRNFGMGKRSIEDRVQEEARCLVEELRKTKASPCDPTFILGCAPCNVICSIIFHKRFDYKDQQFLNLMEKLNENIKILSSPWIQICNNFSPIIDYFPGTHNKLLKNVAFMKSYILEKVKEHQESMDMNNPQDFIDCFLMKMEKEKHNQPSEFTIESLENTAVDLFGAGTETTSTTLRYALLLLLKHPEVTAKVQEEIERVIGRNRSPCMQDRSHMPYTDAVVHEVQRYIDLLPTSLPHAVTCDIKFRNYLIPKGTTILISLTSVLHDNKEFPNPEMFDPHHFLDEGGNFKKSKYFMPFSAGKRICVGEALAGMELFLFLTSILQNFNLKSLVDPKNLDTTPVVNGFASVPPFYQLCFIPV

Where two headings read alike, the source gives them in different places.

`CNS(=O)(=O)Nc1nccc(Cc2c(C)c3ccc(Oc4ncccn4)cc3oc2=O)c1F` [Reference 2, reference compound]: the “Human (% Reamining @1 hour)” value in data set [1] is listed as 107.1%. For the same molecule, the “Beagle Dog (% Reamining @1 hour)” value in [2] is listed as 111.6%. For the same molecule, the “CD-1 Mouse (% Reamining @2 hour)” value in data set [3] amounted to 92.9%. The concentration at 2 h in data set [4] (liver, read-out: Liver) stood at 1990 ng/g; in [4] (muscle, read-out: Muscle) it was 550 ng/g; in [4] (plasma, read-out: Plasma) it was 5670 ng/mL; in data set [4] (tumor, read-out: Tumor), 819 ng/g. In addition, on CYP450 2D6, the “2D6*” value is reported as 3.4. In data set [5], the “CD-1 Mouse (% Reamining @1 hour)” value was 96.0%. This molecule also showed a Papp A→B at 2 h, 10 μM in data set [6] of more than 1 ×10⁻⁶ cm/s.

With `CNS(=O)(=O)Nc1cccc(Cc2c(CN(C)C)c3ccc(OC(=O)N(C)C)cc3oc2=O)c1F` [Compound 9], the “Human (% Reamining @1 hour)” value in [1] is given as 51.7%. Moreover, the “Beagle Dog (% Reamining @1 hour)” value in data set [2] turned out to be 76.5%. In addition, the “CD-1 Mouse (% Reamining @2 hour)” value in [3] came out at 90.6%. This molecule displayed a half-life at 1 uM in [7] of 44 min. Further, in data set [7], the microsomal CLint at 1 uM was 32 µL/min/mg. Further, the “% of total compound related material based on peak area, Human” value in data set [8] came to 99%. Besides, the concentration at 2 h worked out at 1260 ng/g in [4] (liver, read-out: Liver); 363 ng/g in data set [4] (muscle, read-out: Muscle); 407 ng/mL in [4] (plasma, read-out: Plasma); 1350 ng/g in data set [4] (tumor, read-out: Tumor). Further, in data set [9], the activity at 0.1 µM is 44.9%. Also, the “2B6*” value on CYP450 2B6 is listed as 14.8. Besides, the “2C8*” value on CYP450 2C8 was 4.0. Also, the “2C9*” value at CYP450 2C9 amounted to 6.8. In addition, the “2D6*” value on CYP450 2D6 was −3.7. The “CD-1 Mouse (% Reamining @1 hour)” value in data set [5] was found to be 54.3%. In data set [6], this molecule came in with a Papp B→A at 2 h, 10 μM of 21 ×10⁻⁶ cm/s. Moreover, the efflux ratio at 2 h, 10 μM in [6] stood at 1.62. Further, the Papp A→B at 2 h, 10 μM in data set [6] (Caco-2, A-B Permeability Ranking, 10 μM, 2 hrs) is more than 1 ×10⁻⁶ cm/s; in data set [6] (Caco-2, Mean Papp A-B (10^−6 cm/s), 10 μM, 2 hrs), 13 ×10⁻⁶ cm/s.

In the case of `Cn1cnc2c(F)c(Nc3ccc(Br)cc3Cl)c(C(=O)NOCCO)cc21` [Reference 1, Selumetinib, reference compound], the “Human (% Reamining @1 hour)” value in [1] was determined as 75.8%. Moreover, the “Beagle Dog (% Reamining @1 hour)” value in data set [2] was 97.5%. Besides, in data set [3], the “CD-1 Mouse (% Reamining @2 hour)” value is reported as 104.8%. Moreover, at CYP450 2B6, the “2B6*” value was found to be 30.2. On CYP450 2C8, the “2C8*” value stood at 18.9. Besides, the “2C9*” value at CYP450 2C9 worked out at 14.1. Moreover, the “2D6*” value at CYP450 2D6 is given as 5.0. Also, the “CD-1 Mouse (% Reamining @1 hour)” value in data set [5] was 13.9%. In data set [6], this molecule yielded a Papp A→B at 2 h, 10 μM of more than 1 ×10⁻⁶ cm/s.

The values above are taken from patent US20250270180A1, “MEK INHIBITORS AND THERAPEUTIC USES THEREOF” (Immuneering Corporation, priority 2020, published 2025).
